Source: article PMC12748375, “Insights into cannabinoid receptor 2 (CB2) anterograde trafficking and pharmacological chaperoning” (Cellular and Molecular Life Sciences: CMLS, 2025)

Tests used:
hCB2 wt [1] = target: T1, hCB2 wt (Homo sapiens, UniProt P34972); experiment: receptor internalisation, surface HA immunocytochemistry (Method A); assay type: cell-based; conditions: read-out: Method A: Internalisation (3 h) / CB2 wt / pEC50 (± SEM) (converted)
T1 construct: gene CNR2; full-length (63Q), N-terminal HA tag and three thrombin cleavage sites (HA-3TCS), pcDNA5/FRT, expressed in HEK Flp-in-293 cells
T1 sequence (P34972 whole entry): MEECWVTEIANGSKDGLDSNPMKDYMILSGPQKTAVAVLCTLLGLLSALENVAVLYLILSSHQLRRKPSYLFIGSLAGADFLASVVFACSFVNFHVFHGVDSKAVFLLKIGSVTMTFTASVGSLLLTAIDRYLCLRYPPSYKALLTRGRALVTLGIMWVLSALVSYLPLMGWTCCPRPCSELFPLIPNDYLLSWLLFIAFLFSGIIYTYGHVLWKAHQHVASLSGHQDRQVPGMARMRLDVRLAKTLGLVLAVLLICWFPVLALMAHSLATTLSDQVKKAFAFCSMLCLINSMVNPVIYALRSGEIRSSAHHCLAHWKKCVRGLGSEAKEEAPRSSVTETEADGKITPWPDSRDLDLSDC
Excerpt: receptor internalisation, surface HA immunocytochemistry (Method A) on hCB2 wt

hCB2 wt [2] = target: T2, hCB2 wt (Homo sapiens, UniProt P34972, K318E/K319E); experiment: net surface expression, immunocytochemistry (Method B); assay type: cell-based; conditions: read-out: Method B: Net Surface Expression (3 h) / KK mutant / pEC50 (± SEM) (converted)
T2 construct: gene CNR2; full-length (63Q), N-terminal HA tag and three thrombin cleavage sites (HA-3TCS), pcDNA5/FRT, expressed in HEK Flp-in-293 cells
T2 sequence (P34972 whole entry K318E/K319E): as the sequence (P34972 whole entry) above, with K318E, K319E counted along it

| SMILES | EC50 (hCB2 wt [1]) [nM] | EC50 (hCB2 wt [2]) [nM] |
| --- | --- | --- |
| CCCCC/C=C\C/C=C\C/C=C\C/C=C\CCCC(=O)OC(CO)CO [2-AG] | 741 | – |
| COc1ccc(C(=O)c2c(C)n(CCN3CCOCC3)c3cc(I)ccc23)cc1 [AM630] | – | 513 |
